# Patent US6747032B2, “Pyrimidin-4-one compounds” (Les Laboratoires Servier, priority 2001, dated 2004)
# Tests used:
# α2-adrenergic receptors = assay: Affinity for α2-adrenergic receptors, competition with [3H]-RX 821,002; format: binding; details: rat cerebral cortex membranes, 0.4 nM [3H]-RX 821,002, 60 minutes at 22° C.
# Procedure: The affinity was determined by competition experiments with [^3H]-RX 821,002. The membranes are prepared from the cerebral cortex of the rat and are incubated in triplicate with 0.4 nM [^3H]-RX 821,002 and the compound being tested in a final volume of 1.0 ml, for 60 minutes at 22° C. The incubation buffer contains […] TRIS-HCl (pH 7.5), 1 mM EDTA and 100 μM GppNHp. The non-specific binding is determined using 10 μM phentolamine.
# Data Analysis: At the end of the incubation, the incubation medium is filtered through WHATMAN GF/B filters impregnated with 0.1% of polyethylenimine and washed three times with 5 ml of cooled buffer. The radioactivity retained on the filters is determined by liquid scintillation counting. The binding isotherms are analysed by non-linear regression.
# 5-HT2c receptors = biological target: T1, 5-HT2c receptors (Rattus norvegicus, UniProt P08909); assay: Penile erection test in the rat (erections caused by RO 60-0175); format: in vivo; details: sc, male Wistar rats, s.c., compound 30 min before RO 60-0175 (1.25 mg/kg s.c.), erections counted over 30 min, read-out: inhibitory dose 50 (ID50), inhibition of penile erections caused by RO 60-0175
# T1 construct: from tissue; host or cells: whole animal (male Wistar rat, in vivo)
# T1 sequence (P08909 33-460): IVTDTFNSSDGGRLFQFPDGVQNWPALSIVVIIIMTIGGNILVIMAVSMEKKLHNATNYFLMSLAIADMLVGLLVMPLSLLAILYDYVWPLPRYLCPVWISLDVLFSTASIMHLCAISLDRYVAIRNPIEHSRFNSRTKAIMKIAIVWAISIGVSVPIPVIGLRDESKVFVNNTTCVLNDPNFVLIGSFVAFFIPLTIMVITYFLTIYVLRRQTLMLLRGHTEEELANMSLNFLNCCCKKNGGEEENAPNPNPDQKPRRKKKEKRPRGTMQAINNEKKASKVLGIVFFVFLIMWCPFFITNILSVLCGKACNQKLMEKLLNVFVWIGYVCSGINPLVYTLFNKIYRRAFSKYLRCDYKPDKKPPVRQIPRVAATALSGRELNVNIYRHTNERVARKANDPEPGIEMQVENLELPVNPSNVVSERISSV
# Procedure: This test allows evaluation of the capacity of pharmacological agents to inhibit penile erections caused by administration of a selective 5-HT2c agonist, RO 60-0175.
# Male rats of the Wistar strain weighing 120-140 g on the day of the experiment are placed separately in plexiglass observation boxes immediately after the compound under test or the vehicle has been administered. Thirty minutes later, RO 60-0175 (1.25 mg/kg, subcutaneous) is administered to the animals and the number of erections occurring during the next 30 minutes is counted.
# male CD-1 mice = assay: Test for aggressiveness caused by isolation, in the mouse; format: in vivo; details: isolated male CD-1 mice, i.p., 30 min before test, measured over three minutes
# Procedure: The animals used are male CD-1 mice. From the time of their arrival, the mice are isolated in individual cages, with free access to food and drink. After a period of one month of isolation, pairs of mice that are stable in terms of aggressiveness are selected by observing the latency period and the number and the duration of attacks when the mice are placed in the presence of one another.
# The test is conducted once per week. On the day of the test, each mouse of the pair (resident and intruder) is given an intraperitoneal injection of the vehicle (control animals) or of the compound under test (treated animals) in a volume of 10 ml/kg. After 30 minutes, the intruder mouse is introduced into the cage of the resident mouse. The latency period until the first attack and the number and the duration of attacks are then measured over a period of three minutes.
# A compound is considered to be specifically anti-aggressive when it reduces the number and the duration of attacks at non-sedative doses.
# [1] = test system: male mice of the NMRI strain; assay: Marble-burying test in the mouse; format: in vivo; details: s.c., 30 minutes' exploration, 24 marbles
# Source text: This test allows evaluation of the capacity of pharmacological agents to inhibit spontaneous marble-burying behaviour in the mouse, the inhibition being predictive of antidepressant and/or anti-impulsive action.
# Male mice of the NMRI strain weighing from 20 to 25 g on the day of the experiment are placed individually in Macrolon boxes containing 5 cm of sawdust and covered with a perforated plexiglass plate. Twenty-four “tiger's eye” glass marbles are evenly distributed on the sawdust at the periphery of the box. At the end of 30 minutes' free exploration, the animals are removed from the box and the number of buried marbles is counted.
smiles,measurement,setting,value
"Cc1nc2ccccn2c(=O)c1CCN1CC2COc3ccc4ccccc4c3C2C1.O=C(O)/C=C/C(=O)O (stereo not shown) [Example 3, 3-[2-(1,3a,4,11c-Tetrahydrobenzo[5,6]chromeno[3,4-c]pyrrol-2(3H)-yl)-ethyl]-2-methyl-4H-pyrido[1,2-a]pyrimidin-4-one Fumarate]",pKi,α2-adrenergic receptors,7.5
same,ED50,5-HT2c receptors,2.6 mg/kg
same,"inhibitory dose 50 (ID50), number and duration of attacks",male CD-1 mice,7 mg/kg
same,"inhibitory dose 50 (ID50), spontaneous marble-burying behaviour",[1],4.1 mg/kg
